According to patent US20240210394A1, “MICROORGANISM CAPTURE FROM ANTIMICROBIAL-CONTAINING SOLUTION” (MOMENTUM BIOSCIENCE LIMITED, priority 2019, published 2024):

How the values were obtained:
[1] = test system: E. coli; test: Blood culture time to positivity (flip time), bead rescue vs no-rescue control; assay type: cell-based; details: for Flip time: Bead rescue; for Bead Rescue Flip time / Control Flip time in Days: antibiotic 0.075 mg/L blood
Procedure: (§1) Day 1: Prepare overnight culture of test organism in blood/broth medium (50:50 blood:broth) and incubate at 37° C. in a shaking incubator.
Day 2: Prepare ten-fold serial dilution of overnight culture in blood/broth as required and incubate at 37° C. for 2 h for outgrowth.
Add 5 mL of spiked blood+beads (set 1) and 5 mL of spiked blood/Abx+beads (set 3) to blood culture bottles (BioMerieux SA culture bottle) using a vial adapter (West Pharmaceutical Services, Inc. PA, US).
Remove the adaptor and incubate the blood culture bottles in the automated blood culture cabinet (BacT/ALERT BioMerieux) for up to 5 days.
(§2) Record the “Flip” time of each bottle or bottle result at the end of 5 days incubation. The “Flip” time is when a bottle turns positive as determined by the automated blood culture cabinet, which records time to positivity.
(§3) Day 1: Prepare overnight culture of test organism in blood/broth medium (50:50 blood:broth) and incubate at 37° C. (or 30° C. for C. neoformans) in a shaking incubator.
(or 30° C. for C. neoformans) for 2 h for outgrowth. • Antibiotic added to whole blood (defibrinated horse blood) at required level • Whole blood as no-antibiotic control • Test dilution(s) of organism added to blood+antibiotic or blood only at 10 μL per mL of blood (sufficient prepared for experiment requirements) • 100 μL plate count sample taken (TO sample) • 2-hour incubation (static) at 37° C. (or 30° C. for C. neoformans) • 100 μL plate count sample taken (T2 sample) • 5 mL of spiked blood+abx or blood only added to blood culture bottle (using vial adapter) and incubation started (adapter removed) • 5 mL of spiked blood+abx or blood only (from same source) treated with Momentum Capture Beads as below: • 1. Capture Beads diluted in the relevant Capture Reagent—50 μL beads:700 μL capture reagent per clean-up • 2. 750 μL of diluted beads added to 50 mL conical centrifuge tube • 3. 5 mL of transfer medium added to tube • 4. 5 mL of spiked blood+abx or blood only added to tube • 5. […] Magnetise on V&P magnet for 10 min then remove supernatant • 7. Resuspend beads in 1 mL Detergent-free Wash Buffer (DWB) off magnet and transfer to 2 mL Eppendorf flip-top tube on DynaMag-2 magnet • 8. Magnetise for 3 min then remove supernatant • 9. Resuspend beads in 1 mL Detergent-free Wash Buffer (DWB) off magnet then replace on DynaMag-2 magnet • 10. Magnetise for 3 min then remove supernatant • 11. Resuspend beads in 1 mL DWB, add to new blood culture bottle (using vial adapter) and start incubation (adapter removed)
Momentum Capture Beads diluted in the relevant Capture Reagent—50 μL beads:700 μL capture reagent per clean-up • 2. 750 μL of diluted beads added to 50 mL conical centrifuge tube • 3. 5 mL of transfer medium added to tube • 4. 5 mL of spiked blood+abx or blood only added to tube • 5. […] Magnetise on V&P magnet for 10 min then remove supernatant • 7. Resuspend beads in 1 mL Detergent-free Wash Buffer (DWB) off magnet and transfer to 2 mL Eppendorf flip-top tube on DynaMag-2 magnet • 8. Magnetise for 3 min then remove supernatant • 9. Resuspend beads in 1 mL Detergent-free Wash Buffer (DWB) off magnet then replace on DynaMag-2 magnet • 10. Magnetise for 3 min then remove supernatant • 11. Resuspend beads in 1 mL DWB, add to an unused blood culture bottle (BioMerieux FA+culture bottle) using vial adapter and start incubation (adapter removed)

[2] = test system: E. coli; details: cited from earlier work
[3] = test system: S. pneumoniae; test: Blood culture time to positivity (flip time), bead rescue vs no-rescue control; assay type: cell-based; details: for Bead Rescue Flip time / Control Flip time in Days: antibiotic 1 mg/L blood; for Flip time: Bead rescue; for Flip time / Flip time in Days: 12600 cfu/5 ml blood; for Flip time in Days: Control (FA plus bottle)
Procedure: as §3
(or 30° C. for C. neoformans) for 2 h for outgrowth. • Antibiotic added to whole blood (defibrinated horse blood) at required level • Whole blood as no-antibiotic control • Test dilution(s) of organism added to blood+antibiotic or blood only at 10 μL per mL of blood (sufficient prepared for experiment requirements) • 100 μL plate count sample taken (TO sample) • 2-hour incubation (static) at 37° C. (or 30° C. for C. neoformans) • 100 μL plate count sample taken (T2 sample) • 5 mL of spiked blood+abx or blood only added to blood culture bottle (using vial adapter) and incubation started (adapter removed) • 5 mL of spiked blood+abx or blood only (from same source) treated with Momentum Capture Beads as below: • 1. Capture Beads diluted in the relevant Capture Reagent—50 μL beads:700 μL capture reagent per clean-up • 2. 750 μL of diluted beads added to 50 mL conical centrifuge tube • 3. 5 mL of transfer medium added to tube • 4. 5 mL of spiked blood+abx or blood only added to tube • 5. Incubate on ITL TherMix (32.5° C./30 min/1000 rpm—ramped speed protocol) • 6. Magnetise on V&P magnet for 10 min then remove supernatant • 7. Resuspend beads in 1 mL Detergent-free Wash Buffer (DWB) off magnet and transfer to 2 mL Eppendorf flip-top tube on DynaMag-2 magnet • 8. Magnetise for 3 min then remove supernatant • 9. Resuspend beads in 1 mL Detergent-free Wash Buffer (DWB) off magnet then replace on DynaMag-2 magnet • 10. Magnetise for 3 min then remove supernatant • 11. Resuspend beads in 1 mL DWB, add to new blood culture bottle (using vial adapter) and start incubation (adapter removed)
as §2, §1
Momentum Capture Beads diluted in the relevant Capture Reagent—50 μL beads:700 μL capture reagent per clean-up • 2. 750 μL of diluted beads added to 50 mL conical centrifuge tube • 3. 5 mL of transfer medium added to tube • 4. 5 mL of spiked blood+abx or blood only added to tube • 5. Incubate on ITL TherMix (32.5° C./30 min/1000 rpm—ramped speed protocol) • 6. Magnetise on V&P magnet for 10 min then remove supernatant • 7. Resuspend beads in 1 mL Detergent-free Wash Buffer (DWB) off magnet and transfer to 2 mL Eppendorf flip-top tube on DynaMag-2 magnet • 8. Magnetise for 3 min then remove supernatant • 9. Resuspend beads in 1 mL Detergent-free Wash Buffer (DWB) off magnet then replace on DynaMag-2 magnet • 10. Magnetise for 3 min then remove supernatant • 11. Resuspend beads in 1 mL DWB, add to an unused blood culture bottle (BioMerieux FA+culture bottle) using vial adapter and start incubation (adapter removed)
To compare organism capture and rescue from FA plus bottles, on S. pneumoniae in Ceftriaxone. Reproduce experiment by Flayhart et al. 2007 testing antibiotic concentrations of 250, 125 and 94 mg/L and also include concentrations of 50 and 10 mg/L.
In the table below, “control” represents samples processed using FA plus bottles (also referred to as “BC” in the final column) and “bead rescue” refers to samples processed according to the methods of the invention.

[4] = test system: Candida albicans; test: as above; assay type: cell-based; details: 4000 cfu/5 mL Blood
Procedure: (§4) Day 1: […] (or 30° C. for C. neoformans) in a shaking incubator. Day 2: […] (or 30° C. for C. neoformans) for 2 h for outgrowth. • Antibiotic added to whole blood (defibrinated horse blood) at required level • Whole blood as no-antibiotic control • Test dilution(s) of organism added to blood+antibiotic or blood only at 10 μL per mL of blood (sufficient prepared for experiment requirements) • 100 μL plate count sample taken (TO sample) • 2-hour incubation (static) at 37° C. […] […] on V&P magnet for 10 min then remove supernatant • 7. […] […] for 3 min then remove supernatant • 9. Resuspend beads in 1 mL Detergent-free Wash Buffer (DWB) off magnet then replace on DynaMag-2 magnet • 10. […] for 3 min then remove supernatant • 11. Resuspend beads in 1 mL DWB, add to new blood culture bottle (using vial adapter) and start incubation (adapter removed) […] The “Flip” time is when a bottle turns positive as determined by the automated blood culture cabinet, which records time to positivity.

[5] = test system: Cryptococcus neoformans; test: as above; assay type: cell-based; details: antibiotic 2 mg/L blood; 102200 cfu/5 mL Blood
Procedure: as §4

CO/N=C(\C(=O)N[C@@H]1C(=O)N2C(C(=O)O)=C(COC(C)=O)CS[C@H]12)c1csc(N)n1 [Cefotaxime]
Flip time ([1]; Cefotaxime 100 mg/L blood, 50800 cfu/5 mL blood): 0.39 days
Flip time ([1]; Cefotaxime 100 mg/L blood, 508000 cfu/5 mL blood): 0.31 days
Flip time in Days ([1]; Control (FA plus bottle), Cefotaxime 100 mg/L blood, 50800 cfu/5 mL blood): Neg
Flip time in Days ([1]; Control (FA plus bottle), Cefotaxime 100 mg/L blood, 508000 cfu/5 mL blood): Neg
MIC [2]: ≤1 µg/mL

O=C(O)c1cn(C2CC2)c2cc(N3CCNCC3)c(F)cc2c1=O [Ciprofloxacin]
Flip time In Days ([1]; Ciprofloxacin 0.075 mg/L blood, 11400 Cfu/mL (first set, r5-r10), bead rescue with named bead type, antibiotic-labelled line = BC control without beads): Negative
Flip time In Days ([1]; Ciprofloxacin 0.075 mg/L blood, 11400 Cfu/mL (second set, r11-r16), bead rescue with named bead type, antibiotic-labelled line = BC control without beads): Negative
Difference (Days) compared to BE ([1]; Ciprofloxacin 0.075 mg/L blood, 380800 Cfu/mL (some rows print 360800), antibiotic-labelled line = BC control without beads): Negative
Flip time in Days ([1]; Ciprofloxacin 0.075 mg/L blood, 380800 Cfu/mL (some rows print 360800), bead rescue with named bead type, antibiotic-labelled line = BC control without beads): Negative
Difference (Days) compared to BE ([1]; Ciprofloxacin 0.075 mg/l blood, 11400 Cfu/mL (first set, r5-r10), antibiotic-labelled line = BC control without beads): Negative
Difference (Days) compared to BE ([1]; Ciprofloxacin 0.075 mg/l blood, 11400 Cfu/mL (second set, r11-r16), antibiotic-labelled line = BC control without beads): Negative
No-rescue blood culture control result ([1]; Example 23, E. coli in blood containing 0.075 mg/L Ciprofloxacin): negative after 5 days
Blood culture controls (no bead rescue) result ([1]; Example 24, E. coli in blood containing 0.075 mg/L Ciprofloxacin): negative
Bead Rescue Flip time ([1]; 100000 cfu/5 mL Blood): 0.68 days
Control Flip time in Days ([1]; 100000 cfu/5 mL Blood): Neg
Bead Rescue Flip time ([1]; 1000000 cfu/5 mL Blood): 0.61 days
Control Flip time in Days ([1]; 1000000 cfu/5 mL Blood): Neg

CO/N=C(\C(=O)N[C@@H]1C(=O)N2C(C(=O)O)=C(CSc3nc(=O)c(O)nn3C)CS[C@H]12)c1csc(N)n1 [Celtriaxone]
Bead Rescue Flip time ([3]; 200 cfu/5 mL Blood): 0.86 days
Control Flip time in Days ([3]; 200 cfu/5 mL Blood): Neg
Bead Rescue Flip time ([3]; 10000 cfu/5 mL Blood): 0.71 days
Control Flip time in Days ([3]; 10000 cfu/5 mL Blood): Neg
Bead Rescue Flip time ([3]; 100000 cfu/5 mL Blood): 0.68 days
Control Flip time in Days ([3]; 100000 cfu/5 mL Blood): Neg

C[C@@H]1[C@H](O)[C@@H](C)/C=C/C=C/C=C/C=C/C=C/C=C/C=C/[C@H](O[C@@H]2O[C@H](C)[C@@H](O)[C@H](N)[C@@H]2O)C[C@@H]2O[C@](O)(C[C@@H](O)C[C@@H](O)[C@H](O)CC[C@@H](O)C[C@@H](O)CC(=O)O[C@H]1C)C[C@H](O)[C@H]2C(=O)O [Amphoteracin B]
Bead Rescue Flip time ([4]; antibiotic 1 mg/L blood): 1.27 days
Control Flip time ([4]; antibiotic 1 mg/L blood): 2.22 days
Bead Rescue Flip time ([4]; antibiotic 2 mg/L blood): 1.85 days
Control Flip time ([4]; antibiotic 2 mg/L blood): 2.98 days
Bead Rescue Flip time [5]: 3.14 days
Control Flip time [5]: 3.7 days

CO/N=C(\C(=O)N[C@@H]1C(=O)N2C(C(=O)O)=C(CSc3nc(=O)c(=O)[nH]n3C)CS[C@H]12)c1csc(N)n1 [Ceftriaxone]
Flip time ([3]; Ceftriaxone 10 mg/L blood): 0.46 days
Flip time ([3]; Ceftriaxone 50 mg/L blood): 0.47 days
Flip time ([3]; Ceftriaxone 94 mg/L blood): 0.52 days
Flip time ([3]; Ceftriaxone 125 mg/L blood): 0.49 days
Flip time ([3]; Ceftriaxone 250 mg/L blood): 0.51 days
Flip time in Days ([3]; Ceftriaxone 10 mg/L blood): Neg
Flip time in Days ([3]; Ceftriaxone 50 mg/L blood): Neg
Flip time in Days ([3]; Ceftriaxone 94 mg/L blood): Neg
Flip time in Days ([3]; Ceftriaxone 125 mg/L blood): Neg
Flip time in Days ([3]; Ceftriaxone 250 mg/L blood): Neg
